Results taken from PubChem BioAssay (NCI).
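Compound exposure: 48 hours, 5 concentrations, 96-well plates. GI50: concentration for 50% inhibition of growth. TGI marks complete inhibition of growth.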

Tests used:
Test in all cases: growth of human tumour cells (NCI), 48 h
[1] = tested on: HOP-62 NSCLC
[2] = tested on: SR leukemia
[3] = tested on: RXF 393 renal
[4] = tested on: NCI-H23 lung
[5] = tested on: CAKI-1 renal
[6] = tested on: A498 renal
[7] = tested on: EKVX NSCLC
[8] = tested on: HCT-15 colon
[9] = tested on: A549 NSCLC
[10] = tested on: NCI/ADR-RES ovarian

SMILES	TGI [1]	TGI [2]	TGI [3]	TGI [4]	TGI [5]	TGI [6]	TGI [7]	TGI [8]	TGI [9]	GI50 [1]	GI50 [2]	GI50 [3]	GI50 [4]	GI50 [5]	GI50 [6]	GI50 [7]	GI50 [8]	GI50 [9]	GI50 [10]	TGI [10]
O=C(O)CCC(NC(=O)c1ccccc1)C(=O)O (centres undefined)	> 100 µM	> 100 µM	> 100 µM	> 100 µM	> 100 µM	> 100 µM	> 100 µM	> 100 µM	> 100 µM	–	–	–	–	–	–	–	–	–	–	–
COc1ccc(C(=O)/C=C/c2ccc3c(c2)OCO3)c(OCc2ccccc2)c1	> 100 µM	> 27.1 µM	> 100 µM	> 100 µM	> 100 µM	> 100 µM	> 100 µM	> 100 µM	> 100 µM	–	–	–	–	–	–	–	–	–	–	–
COC(=O)[C@]12CC=C3O[C@@H]4OC5(CCCCC5)O[C@@H]4C3[C@@H]1C(=O)CCC2=O (some centres undefined)	> 100 µM	–	–	> 100 µM	> 100 µM	> 100 µM	> 100 µM	> 100 µM	> 100 µM	–	–	–	–	–	–	–	–	–	–	–
COc1cccc2c1C(=O)c1c(O)c3c(c(O)c1C2=O)C[C@@](O)(C(=O)CO)C[C@@H]3O[C@H]1C[C@H](N)[C@@H](O)[C@H](C)O1	2.37 µM	1.07 µM	1.02 µM	0.953 µM	30.7 µM	1.06 µM	16.1 µM	50 µM	1.22 µM	0.16 µM	0.0137 µM	0.205 µM	0.122 µM	1.32 µM	0.134 µM	1.2 µM	2.99 µM	0.05 µM	–	–
Cc1c(C(=O)CC(=O)C(=O)Nc2ccc(Cl)cc2)[n+](=O)c2ccccc2n1[O-]	–	–	–	> 100 µM	> 100 µM	> 100 µM	> 100 µM	> 100 µM	> 100 µM	–	–	–	–	–	–	–	–	–	–	–
CN(C)C=[N+]=[N-]	> 100 µM	> 100 µM	> 100 µM	> 100 µM	> 100 µM	> 100 µM	> 100 µM	> 100 µM	> 100 µM	–	–	–	–	–	–	–	–	–	–	–
C/C=C1/CCC2c3[nH]c4ccccc4c3CCN2C1 (centres undefined)	> 100 µM	> 100 µM	> 100 µM	> 100 µM	> 100 µM	> 100 µM	> 100 µM	–	> 100 µM	–	–	–	–	–	–	–	–	–	–	–
COc1ccc(CC(=O)NCCc2ccc(OC)c(OC)c2)cc1Br	> 100 µM	> 100 µM	> 100 µM	> 100 µM	> 100 µM	> 100 µM	> 100 µM	–	> 100 µM	–	–	–	–	–	–	–	–	–	–	–
CC1=NN(C(=O)CC(=O)NC(=O)CC(=O)Nc2ccccc2F)C(=O)C1N=Nc1ccc([N+](=O)[O-])cc1 (centres undefined)	> 100 µM	–	–	> 100 µM	> 100 µM	94.8 µM	96.2 µM	> 100 µM	86.2 µM	–	–	–	–	–	–	–	–	–	–	–
O=C(NCCCCCCNC(=O)OCCSCCn1cc(C(=O)NC(=O)OCc2ccccc2)c(=O)[nH]c1=O)OCCSCCn1cc(C(=O)NC(=O)OCc2ccccc2)c(=O)[nH]c1=O	> 100 µM	–	> 100 µM	> 100 µM	> 100 µM	> 100 µM	> 100 µM	> 100 µM	> 100 µM	–	–	–	–	–	–	–	–	–	–	–
O=C(O)CCSC(=O)Nc1ccccc1F	> 100 µM	> 100 µM	> 100 µM	> 100 µM	> 100 µM	> 100 µM	> 100 µM	> 100 µM	> 100 µM	–	–	–	–	–	–	–	–	–	–	–
CCCC/C=C1\CCC(C)(CN(C)C)C1=O (centres undefined)	> 100 µM	> 100 µM	> 100 µM	> 100 µM	> 100 µM	> 100 µM	> 100 µM	> 100 µM	> 100 µM	–	–	–	–	–	–	–	–	–	–	–
CC(NCCC(=O)N(CCC(=O)N(CCC(=O)N(CCC(=O)N(CCC(=O)N(CCC(=O)N(CCC(=O)N(CCC(=O)N(CCC(=O)N(CCC(=O)O)[C@H](C)c1ccccc1)[C@H](C)c1ccccc1)[C@H](C)c1ccccc1)[C@H](C)c1ccccc1)[C@H](C)c1ccccc1)[C@H](C)c1ccccc1)[C@H](C)c1ccccc1)[C@H](C)c1ccccc1)[C@H](C)c1ccccc1)c1ccccc1 (some centres undefined)	6.93 µM	–	3.78 µM	49.1 µM	> 45.1 µM	11.8 µM	> 75 µM	> 27 µM	> 75 µM	1.99 µM	–	1.47 µM	3.9 µM	3.49 µM	2.37 µM	3.73 µM	3.22 µM	3.56 µM	> 75 µM	> 75 µM
CCC[CH2][Sn]([CH2]CCC)([CH2]CCC)[O]C(=O)c1ccc(Cl)cc1Cl	0.319 µM	–	0.321 µM	0.296 µM	0.255 µM	0.236 µM	0.273 µM	0.419 µM	0.328 µM	0.164 µM	–	0.151 µM	0.13 µM	0.0785 µM	0.11 µM	0.099 µM	0.173 µM	0.164 µM	0.177 µM	0.378 µM
COc1ccc(S(=O)(=O)N/N=C/c2cc(I)cc([N+](=O)[O-])c2O)cc1OC	–	–	–	–	85.3 µM	> 100 µM	> 100 µM	> 100 µM	> 100 µM	–	–	–	–	–	–	–	–	–	–	–
COC(=O)C1=C(C(=O)OC)SC(=C(Cl)C(=S)Nc2ccccc2O)S1	11.2 µM	> 50 µM	29.5 µM	20.1 µM	21.8 µM	–	–	> 50 µM	> 50 µM	0.354 µM	26.1 µM	11.7 µM	6.67 µM	9.63 µM	–	–	17.7 µM	21.2 µM	14.1 µM	35.1 µM
CNCCNc1c2c(c(NCCNC)c3[nH]ccc13)C(=O)c1ccccc1C2=O	0.543 µM	–	0.752 µM	0.558 µM	1.15 µM	4.27 µM	4.13 µM	0.761 µM	0.427 µM	0.135 µM	–	0.214 µM	0.197 µM	0.278 µM	2.14 µM	1.33 µM	0.115 µM	0.0904 µM	1.26 µM	8.21 µM
COC(=O)NN=C1C(C)(C)C(=O)C1(C)C	> 100 µM	–	> 100 µM	> 100 µM	–	> 100 µM	> 100 µM	–	> 100 µM	–	–	–	–	–	–	–	–	–	–	–
Cc1[nH]c(=O)n2c(C)nnc2c1C(=O)Nc1cc(Cl)cc(Cl)c1	79.4 µM	66.5 µM	42 µM	53 µM	> 100 µM	–	> 100 µM	78.7 µM	> 100 µM	–	–	–	–	–	–	–	–	–	–	–
CN(C)CCNC(=O)c1cccc2[nH]c(-c3cccnc3)nc12	44.1 µM	–	33.8 µM	44.9 µM	88.1 µM	30.6 µM	56.5 µM	79.6 µM	43.5 µM	–	–	–	–	–	–	–	–	–	–	–
